This passage reports IC50 results from US12570675B2, “Boronic acid compounds” (LG CHEM, LTD., priority 2020, dated 2026).

Test [1] concerns the target Proteasome caspase-like activity (S26 protein from RPMI8226 cells) (Homo sapiens (Human), UniProt P28072). Kind of test: Proteasome caspase-like activity inhibition (Z-Leu-Leu-Glu-AMC fluorogenic substrate, RPMI8226 cell extract). Format: biochemical. The note with it: S26 protein from RPMI8226 cell extract 2 ug/well, substrate 20 uM, 37° C., 90 minutes. How it is done:
The abilities to inhibit the proteasome activity of the compounds described in the Examples of the present invention and boronic acid drugs were evaluated as follows.
RPMI8226 cells, which is a multiple myeloma cell line, were cultured and then separated by a centrifuge, and washed twice with phosphate buffered saline (PBS). 20 mM of a tris-HCl (pH 8.0) buffer solution was added to the washed cells, and the cells were disrupted by a homogenizer and centrifuged to obtain S26 protein from the supernatant. Suc-Leu-Leu-Val-Tyr-AMC, for a fluorogenic substrate for the chymotrypsin-like activity of the proteasome, and Z-Leu-Leu-Glu-AMC, for a fluorogenic substrate for the caspase-like activity, were purchased from Calbiochem, EMD Millipore and used. Into each well of a 96-well plate (opaque, black round bottom), 20 ul of the S26 protein (final RPMI8226 cell extract concentration: 2 ug/well), 10 ul of S26 proteasome inhibitor serially diluted from 10 uM (final DMSO concentration: 0.5%), and 20 ul of the fluorogenic substrate for the proteasome chymotrypsin-like or caspase-like activity (final concentration: 20 uM) were added and mixed and allowed to react in a 37° C. incubator for 90 minutes. The fluorescence of the fluorogenic substrate was measured by FlexStation II Fluorometer (Molecular Devices). The fluorescence inhibited by the compound diluted at each concentration was measured as the relative percentage value for the amount obtained from the treatment only with the S26 protein and the fluorogenic substrate. IC50 (inhibitory concentration 50) was expressed in terms of a concentration that inhibits 50% of the maximum fluorescence induced by the fluorogenic substrate.

In test [2] the target is Proteasome chymotrypsin-like activity (S26 protein from RPMI8226 cells) (Homo sapiens, UniProt P28074). Format: biochemical. The note with it: S26 protein from RPMI8226 cell extract 2 ug/well, substrate 20 uM, 37° C., 90 minutes; read-out: Proteasome chymotrypsin-like activity inhibition IC50. The essentials:
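Inhibition is measured in crude proteasome (S26) from RPMI8226 cells at 2 ug/well, using 20 uM substrate specific to each activity: Suc-LLVY-AMC for chymotrypsin-like, Z-LLE-AMC for caspase-like. Compounds span a dilution series from 10 uM.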

Proteasome chymotrypsin-like activity (S26 protein from RPMI8226 cells), sequence (P28074 60-263 limits assumed): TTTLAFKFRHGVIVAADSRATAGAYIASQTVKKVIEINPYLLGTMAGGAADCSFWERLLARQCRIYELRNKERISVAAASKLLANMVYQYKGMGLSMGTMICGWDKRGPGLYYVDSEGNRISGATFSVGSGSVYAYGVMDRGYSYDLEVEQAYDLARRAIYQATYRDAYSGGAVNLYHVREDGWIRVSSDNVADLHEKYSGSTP
Proteasome caspase-like activity (S26 protein from RPMI8226 cells), sequence (P28072 whole entry): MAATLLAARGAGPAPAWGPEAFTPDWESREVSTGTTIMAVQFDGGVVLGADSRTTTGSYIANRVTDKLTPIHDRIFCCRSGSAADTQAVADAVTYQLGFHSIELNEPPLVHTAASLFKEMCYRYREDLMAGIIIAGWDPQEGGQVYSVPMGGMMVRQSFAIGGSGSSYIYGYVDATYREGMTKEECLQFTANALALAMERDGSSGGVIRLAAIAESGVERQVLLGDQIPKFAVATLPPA

Usually IC50 stands for the concentration that gives 50% inhibition. As to `Cc1cc(C(=O)NCC2=NOC(Cc3ccccc3)(C(=O)N[C@@H](CC(C)C)B(O)O)C2)n(C(C)C)n1` (stereo partly drawn) [Example 190, ((1R)-1-(5-benzyl-3-((1-isopropyl-3-methyl-1H-pyrazol-5-carboxamido)methyl)-4,5-dihydroisoxazol-5-carboxamido)-3-methylbutyl)boronic acid], the IC50 was above 2500 nM in test [1] and below 10 nM in test [2].

Turning to `CC(C)C[C@H](NC(=O)C1(Cc2ccccc2)CC(CNC(=O)c2cc(Cl)ccc2Cl)=NO1)B(O)O` (stereo partly drawn) [Example 85, ((1R)-1-(5-benzyl-3-((2,5-dichlorobenzamido)methyl)-4,5-dihydroisoxazol-5-carboxamido)-3-methylbutyl)boronic acid], the IC50 was above 1000 nM in test [1] and below 10 nM in test [2].

Regarding `Cc1nc(C)c(COCC2=NOC(Cc3ccccc3)(C(=O)N[C@@H](CC(C)C)B(O)O)C2)s1` (stereo partly drawn) [Example 51, ((1R)-1-(5-benzyl-3-(((2,4-dimethylthiazol-5-yl)methoxy)methyl)-4,5-dihydroisoxazol-5-carboxamido)-3-methylbutyl)boronic acid], the results for the IC50 in test [1] and in test [2] were above 500 nM and below 10 nM, respectively.

As to `CC(C)C[C@H](NC(=O)C1(CCc2ccccc2)CC(CNC(=O)c2nccc3ccccc23)=NO1)B(O)O` (stereo partly drawn) [Example 162, ((1R)-1-(3-((isoquinolin-1-carboxamido)methyl)-5-penetyl-4,5-dihydroisoxazol-5-carboxamido)-3-methylbutyl)boronic acid], the IC50 in test [1] is above 1000 nM; in test [2], below 25 nM.

Consider `CC(C)C[C@H](NC(=O)C1(Cc2ccccc2)CC(CNC(=O)c2cccc3ccccc23)=NO1)B(O)O` (stereo partly drawn) [Example 92, ((1R)-1-(3-((1-naphthamido)methyl)-5-benzyl-4,5-dihydroisoxazol-5-carboxamido)-3-methylbutyl)boronic acid], for which the IC50 in test [1] was above 500 nM; in test [2] it was below 10 nM.

With `CC(C)C[C@H](NC(=O)C1CC(CNC(=O)c2cccc(Oc3ccccc3)c2)=NO1)B(O)O` (stereo partly drawn) [Example 71, ((1R)-3-methyl-1-(3-((3-phenoxybenzamido)methyl)-4,5-dihydroisoxazol-5-carboxamido)butyl)boronic acid], the IC50 in test [1] is above 250 nM; in test [2] it was below 25 nM.

In the case of `CC(C)C[C@H](NC(=O)C1(Cc2ccccc2)CC(CNC(=O)c2c[nH]c3ccccc23)=NO1)B(O)O` (stereo partly drawn) [Example 124, ((1R)-1-(3-((1H-indol-3-carboxamido)methyl)-5-benzyl-4,5-dihydroisoxazol-5-carboxamido)-3-methylbutyl)boronic acid], the IC50 in test [1] is above 500 nM; in test [2], below 10 nM.

On to `CC(C)C[C@H](NC(=O)C1(Cc2ccccc2)CC(CNC(=O)c2cccc3c2ccn3C(C)C)=NO1)B(O)O` (stereo partly drawn) [Example 134, ((1R)-1-(5-benzyl-3-((1-isopropyl-1H-indol-4-carboxamido)methyl)-4,5-dihydroisoxazol-5-carboxamido)-3-methylbutyl)boronic acid], for which the IC50 in test [1] was above 500 nM; in test [2] it was below 10 nM.

As to `CC(C)C[C@H](NC(=O)C1(Cc2ccccc2)CC(CNC(=O)c2nn(C(C)C)c3ccccc23)=NO1)B(O)O` (stereo partly drawn) [Example 202, ((1R)-1-(5-benzyl-3-((1-isopropyl-1H-indazol-3-carboxamido)methyl)-4,5-dihydroisoxazol-5-carboxamido)-3-methylbutyl)boronic acid], the IC50 was above 500 nM in test [1] and below 10 nM in test [2].

With `CC(C)C[C@H](NC(=O)C1CC([C@H](CC(C)C)NC(=O)c2cc(Cl)ccc2Cl)=NO1)B(O)O` (stereo partly drawn) [Example 74, ((1R)-1-(3-((S)-1-(2,5-dichlorobenzamido)-3-methylbutyl)-4,5-dihydroisoxazol-5-carboxamido)-3-methylbutyl)boronic acid], the results for the IC50 in test [1] and in test [2] were above 500 nM and below 25 nM, respectively.
